From patent publication US20250213593A1, “Use of Derivatives based on Sarsasapogenin Structure and Pharmaceutical Compositions thereof” (BEIJING PHYTOVENT PHARMACEUTICAL TECHNOLOGY CO., LTD., priority 2022, published 2025) come the findings set out here.

“Also recorded” adds a separate entry of the source. Marks after values point to notes of the source that are not given here.

The subject of test [1] is hippocampal neurons. The test can be described thus: L-cysteine-induced neuronal excitotoxicity. The format is cell-based, SD rats. Conditions: for protective effects on L-Cystine (400 μM)-induced neuronal excitotoxicity: compound 1 μM, 24 h before inducer. The protocol: Experimental and analytical method: before the experiment, a 24-well cell culture plate was pretreated with Poly-D-lysine and placed in a cell incubator at 37° C. and 5% CO2 overnight. SD rats, 18 days pregnant, were ordered, brains of fetal rats (E18-19) were dissected, and hippocampal neurons in the brains were subjected to primary culture in a neuronal medium using a 24-well plate, and then cultured by a serum-free medium. The hippocampal neurons were cultured in a cell incubator at 37° C., 5% CO2 for 19 days (DIV19), then added with a compound to be tested (a final concentration of 1 μM) and a positive control AP5 [(2R)-amino-5-phosphonopentanoic acid(phosphonatopentanoate)] (a final concentration of 100 μM), cultured for 24 h, and then added with L-Cystine (400 μM) and NaHCO3 (10 mM). After 18 h, Hoechst3342 (2.5 μg/ml) was added for cell staining. The cells were placed in the incubator and cultured for 15 min, and photographed using the high-content fluorescence microscope, wherein 6 random non-overlapping fields were photographed for each duplicate well, and the total number of neurons and the number of dead neurons were counted with software Image J. The obtained data was used to determine whether there was a difference between a drug treatment group and a control group.
Compound treatment: 32 small molecule compounds in Embodiment 1 to Embodiment 19A were diluted with DMSO to a 1 mM mother solution; and 1 μL of mother solution was added to 1 ml of culture solution per well in a 24-well plate to a final concentration of 1 μM, wherein a positive control compound was […] of AP5 (100 mM mother solution), and a negative control was 1 μl of DMSO.

Test [2] concerns C57BL/6J mice, LPS-induced peripheral and central inflammation. The test can be described thus: LPS-induced peripheral and central inflammation mouse model. The format is in vivo. Conditions: 30 mg/kg p.o. QD*3. The protocol: Modeling method: LPS (2 mg/kg, i.p., QD) was injected on Day 1, Day 2 and Day 3 to induce peripheral and central inflammations of mice. An ND drug test group was subjected to administration pre-protection (ND 30 mg/kg, p.o., QD) 2 h before LPS injection. After the experiment, plasma and brain tissues of the mice were collected for inflammatory factors, peroxidation factors and other indicators.
• Serum: after the mice were anesthetized with 1% sodium pentobarbital, the eyeballs were harvested, the blood was taken and placed in an EP tube, and then centrifuged at low temperature after standing at 4° C. for 1 h, and a supernatant was taken, and frozen quickly in liquid nitrogen. • Hippocampal tissues: the mice were anesthetized with 1% sodium pentobarbital and then subjected to cardiac perfusion with cold PBS, brains were harvested, and tissues were taken on ice and frozen quickly in an EP tube with liquid nitrogen.
Cryopreserved plasma was taken, and an reactive oxygen detection kit, a hydrogen peroxide detection kit and a nitric oxide detection kit were used to detect various indicators. The specific operation processes were the same as the instruction of each kit.
The cryopreserved hippocampal tissues were taken, added with a RIPA tissue lysate containing a protease inhibitor, fully homogenized and cleaved. A supernatant was taken after low-temperature centrifugation. The protein quantification was performed by a BCA protein quantification kit. Tissue samples were adjusted to a unified protein concentration. An reactive oxygen detection kit, a hydrogen peroxide detection kit and a nitric oxide detection kit were used to detect various indicators.
Cryopreserved plasma was taken, and IL-1β, IL-6 and IL-10 kits were used to detect various indicators. The specific operation processes were the same as the instruction of each kit.
A hippocampal tissue supernatant was taken, and IL-1β, IL-6 and IL-10 kits were used to detect various indicators. The specific operation processes were the same as the instruction of each kit.
Experimental results were expressed as “mean±standard deviation”. One-way ANOVA was used to compare the data of each group to determine whether there was a statistical difference between the groups.

Test [3] relates to mice with ulcerative colitis induced by 3.0% DSS. The test can be described thus: DSS mouse enteritis model. The format is in vivo. An excerpt: 60 mice in good health were divided into 6 groups according to body weight, with 10 mice in each group: a normal control group, a model group, a positive drug group, and groups of different test products (Embodiment 13B, Embodiment 33, and Embodiment 34, at a dosage of 80 mpk each). In addition to the normal control group, the mice in other groups were administrated with a 3.0% DSS solution to drink freely, and consecutively modeled for 8 days. The normal control group was administrated with autoclaved filtered water to drink freely. The drug was administered on the day of modeling, and a test product was administered by oral gavage according to a designed dosage, once a day for 9 consecutive days. […] On the next day after the last administration, after deep anesthesia with CO2, cardiac blood and plasma were collected, and cryopreserved at −80° C. Subsequently, the abdominal cavity was dissected, the liver was removed and cryopreserved at −80° C. Finally, the entire colon tissue was removed, the colon length was measured, photographs were taken, and the colon content was washed with normal saline after dissection along the mesenteric side and weighed.

The subject of test [4] is rats with ulcerative colitis induced by TNBS. Briefly: TNBS rats enteritis model. The format is in vivo, rat. The conditions noted are these: 80 mpk oral gavage once a day, 7 days. The protocol: All rats except the normal control group were fasted for solids (not liquids) for 24 h. After being anesthetized with isoflurane, the rats were transrectally infused with a TNBS ethanol solution (18 mg TNBS/mouse) at 0.5 mL/mouse through a latex hose, the length of the hose into the rectum was about 8 cm, an anesthesia state was continued after the hose was withdrawn, and the rats were kept in an inclined state for 15 min. The rats in the normal control group were not stimulated with rectal cannula. After the animals were awake, they were randomly divided into groups, which then began to be administrated with drugs (marked as D1). The blank group and the model group were administrated with the same amount of vehicle by oral gavage once a day for 7 consecutive days (D1-D7). The animal's status and feces (loose stools or bloody stools) were observed every day. The body weights were monitored. On the next day after the last administration (D8), the animals were deeply anesthetized with CO2, sacrificed and dissected. The entire colon tissues were harvested. The colon content was washed with normal saline after dissection along the mesenteric side. The body weights were measured and the colon lengths were measured. A ulcer surface was measured by Image J software. The general conditions of the colons were observed and photographed. Some of diseased tissues were fixed with formalin, and subjected to histopathological observation by HE staining. • Results: (1) the effects on general conditions of TNBS colitis mice were shown in FIG. 46a: the rats had loose stool on the next day of TNBS modeling; and the modeled mice had symptoms of reduced diet, tiredness, emaciation, erect hair, and dull hair. The feces of some rats were improved in the later stage of administration, but some rats still maintained loose stool until the end of the experiment, and some rats had obvious abdominal distension in the later stage of the experiment.

The subject of test [5] is transgenic neutrophil fluorescent zebrafishes. The test can be described thus: Anti-inflammatory effect on LPS-induced inflammatory zebrafish. The format is in vivo. Conditions: 80 μM; for Number of neutrophils (mean ± SE): 3 h, n = 10, model control 18, normal control 3. The protocol:
LPS was used to treat normal 3 dpf transgenic neutrophil fluorescent zebrafishes in a yolk sac injection, and a zebrafish inflammation model was established.
Transgenic neutrophil fluorescent zebrafishes (3 dpf), well developed and consistent in stage on 3 days after fertilization, were picked under a microscope and placed in a six-well plate, with 30 zebrafishes being randomly picked for each well at a capacity of 3 mL in each well. A zebrafish inflammation model was established by administrating LPS in a yolk sac injection. “Embodiment 5” and “Embodiment 6” were respectively dissolved with water, wherein the concentrations were 0.28 μM, 0.83 μM and 2.5 μM, respectively. The concentration of indomethacin was 80 μM. Meanwhile, a normal control group (i.e., zebrafishes were treated with fish-farming water) and a model control group were set, and incubated in a 28° C. incubator for 3 h. 10 zebrafishes were randomly selected from each group, and observed and photographed under a fluorescence microscope, and the photos were saved. Nikon NIS-Elements D 3.10 advanced image processing software was used for image analysis, the number (N) of inflammatory neutrophils in zebrafish was calculated, and the statistical processing results were expressed as mean±SE. The statistical analysis results of the number of inflammatory neutrophils in zebrafish were used to evaluate whether “Embodiment 5” and “Embodiment 6” had significant anti-inflammatory effects on LPS-induced inflammatory zebrafish, respectively. A formula for calculating the anti-inflammatory effects of “Embodiment 5” and “Embodiment 6” was as follows: […]

[6] abbreviates: 80 mpk oral gavage once a day, 9 days.

`N[C@H](CCCP(=O)(O)O)C(=O)O` [AP5, (2R)-amino-5-phosphonopentanoic acid(phosphonatopentanoate), reference compound]: in test [1] (AP5 100 μM), the “protective effect on the neuronal excitotoxicity” value is “very significant protective effect”. For the same compound, the “proportion of dead cells” value in test [1] (AP5 100 μM, L-Cystine 400 μM + NaHCO3 10 mM, without inducer 20.12%, DMSO 87.62%) turned out to be 27.58%.
Regarding `C[C@H]1CC[C@@]2(OC1)O[C@H]1C[C@H]3[C@@H]4CC[C@@H]5CC(NC(=O)CCN6CCN(C)CC6)CC[C@]5(C)[C@H]4CC[C@]3(C)[C@H]1[C@@H]2C` (some centres unmarked) [Embodiment 1], in test [1], the “protective effects on L-Cystine (400 μM)-induced neuronal excitotoxicity” value (“protective effects on L-Cystine” for short) was “protective effects”.
Consider `C[C@H]1CC[C@@]2(OC1)O[C@H]1C[C@H]3[C@@H]4CC[C@@H]5C[C@H](NC(=O)CCN(C)C)CC[C@]5(C)[C@H]4CC[C@]3(C)[C@H]1[C@@H]2C` [Embodiment 4B], for which, in test [1], the “protective effects on L-Cystine” value is “protective effects”.
For `C[C@H]1CC[C@@]2(OC1)O[C@H]1C[C@H]3[C@@H]4CC[C@@H]5CC(NC(=O)CC(=O)N6CCNCC6)CC[C@]5(C)[C@H]4CC[C@]3(C)[C@H]1[C@@H]2C` (some centres unmarked) [Embodiment 10], the “protective effects on L-Cystine” value in test [1] is on record as “protective effects”.
With `C[C@@H]1CC[C@@]2(OC1)OC1CC3C4CC[C@H]5C[C@@H](NC(=O)CCN(C)C)CC[C@]5(C)C4CC(=O)[C@]3(C)C1[C@@H]2C` (some centres unmarked) [Embodiment 20A], in test [2], the IL-10 in hippocampus entry is on record as “only affected”, the IL-10 in serum result is “only affected”, the “anti-inflammatory effect (in words)” value is listed as “obvious anti-inflammatory effect; also recorded: good anti-inflammatory effect” and the “antioxidant effect (in words)” value was “good antioxidant effect”. In addition, in test [2] (vs LPS group), the “H2O2 concentration in serum” value is recorded as “significantly improved”, the “NO concentration in serum” value is given as “significantly improved” and the “ROS level in serum” value was “significantly improved”.
`CC(C)CN1CCN(C2CCN(C(=O)CC(=O)NC3CC[C@]4(C)C5CC[C@]6(C)[C@@H]7[C@H](C[C@H]6[C@@H]5CC[C@@H]4C3)O[C@]3(CC[C@H](C)CO3)[C@H]7C)CC2)CC1` (some centres unmarked) [Embodiment 33]: in test [3] (setting [6]), the colon length entry is “could increase the weights and lengths of the colons”; the colon weight result was “could increase the weights and lengths of the colons”; the “general conditions of DSS colitis mice” value is recorded as “certain improvement effects”.
For the compound `CC(C)N1CCC(N2CCN(C(=O)CC(=O)NC3CC[C@]4(C)C5CC[C@]6(C)[C@@H]7[C@H](C[C@H]6[C@@H]5CC[C@@H]4C3)O[C@]3(CC[C@H](C)CO3)[C@H]7C)CC2)CC1` (some centres unmarked) [Embodiment 34], in test [3] (setting [6]), the colon length entry was “could increase the weights and lengths of the colons”; the colon weight result was “could increase the weights and lengths of the colons”; the “general conditions of DSS colitis mice” value is given as “certain improvement effects”.
Turning to `C[C@H]1CC[C@@]2(OC1)O[C@H]1C[C@H]3[C@@H]4CC[C@@H]5CC(NC(=O)CC(=O)N6CCN(C7CCN(CCF)CC7)CC6)CC[C@]5(C)C4CC[C@]3(C)[C@H]1[C@@H]2C` (some centres unmarked) [Embodiment 36], in test [4], the colon ulcer area entry is reported as “could reduce” and the “colon weight per unit length (colon weight/colon length)” value is reported as “could reduce”.
With `C[C@H]1CC[C@@]2(OC1)O[C@H]1C[C@H]3[C@@H]4CC[C@@H]5CC(NC(=O)CC(=O)N6CCN(C(=O)CN(C)C)CC6)CC[C@]5(C)C4CC[C@]3(C)[C@H]1[C@@H]2C` (some centres unmarked) [Embodiment 37], in test [4], the colon ulcer area entry was “could reduce” and the “colon weight per unit length (colon weight/colon length)” value is listed as “could reduce”.
For the compound `O=C(O)c1cc(/N=N/c2ccc(S(=O)(=O)Nc3ccccn3)cc2)ccc1O` [SASP, reference compound], in test [3] (720 mg/kg positive drug), the colon atrophy result is given as “could inhibit colon atrophy” and the “general conditions of DSS colitis mice” value is listed as “certain improvement effects”.
Turning to `COc1ccc2c(c1)c(CC(=O)O)c(C)n2C(=O)c1ccc(Cl)cc1` [indomethacin, Indomethacin, reference compound], in test [5], the “Inflammation resolution (%) / anti-inflammatory effect” value worked out at 67% and the “Number of neutrophils (mean ± SE)” value is on record as 6. Further, in test [5] (listed as Indomethacin), the “Number of neutrophils (mean ± SE)” value came to 6 ± 0.31 and the “Inflammation resolution (%) / anti-inflammatory effect” value is reported as 67*** %. For the same compound, the “anti-inflammatory effect on inflammatory zebrafish (in words)” value in test [5] (P<0.001 vs model control) is on record as “obvious anti-inflammatory effect”.
